The record followed here is ChEMBL document CHEMBL1129616, “Synthesis and evaluation of novel thymidine analogs as antitumor and antiviral agents” (J Med Chem, 1996).

The subject of the test is SV-28. Briefly: Compound was tested for its effect on (target DNA or RNA) cell plating efficiency at 25 uM after a 24 hr exposure (the SV-28 cell has a plating efficiency between 50 and 60%). The test is classed as functional, Cricetulus griseus.

`CCCCCCCCCCCCCCCC(=O)CC[N+](C)(C)CCOCn1cc(C)c(=O)[nH]c1=O.[I-]` came in with a Cell plating efficiency of 47%.
